Measurements as given in publication PMC8379256, “A xanthene derivative, DS20060511, attenuates glucose intolerance by inducing skeletal muscle-specific GLUT4 translocation in mice” (Communications Biology, 2021).
Values joined by “and” are separate entries in the source; they are usually repeats but may differ in a detail not shown here. Equal values may be shown once.

How the values were obtained:
[1] = test system: wild-type and GLUT4KO mice; experiment: Oral GTT in wild-type and GLUT4 knockout mice; format: in vivo, mouse; details: for Blood glucose / Plasma insulin: glucose tolerance test, DS20060511 30 mg/kg, individual animals, 30 mg/kg; for blood glucose and plasma insulin levels during oral GTT (in words): 30 mg kg−1 po
Method: Fig. 3 The glucose-lowering effect of DS20060511 is totally dependent on GLUT4. a Blood glucose and plasma insulin levels during oral GTT in wild-type (WT, n = 5) and GLUT4 knockout (KO, n = 6) mice. Mice received oral administration of vehicle or DS20060511 (30 mg kg^−1), 15 min prior to the glucose administration (1.5 g kg^−1). Values shown are means ± SEM. *P < 0.05, **P < 0.01 vs. vehicle by the t-test. b DS20060511-stimulated [^3H]-2-DG uptake in the isolated soleus and EDL muscles excised from WT (n = 6) and KO (n = 6) mice. Values shown are means ± SEM. **P < 0.01 vs. vehicle by the t-test.
(§1) C57BL/6 and db/db mice were purchased from CLEA Japan, Tokyo, Japan. GLUT4- knockout mice were generated at RIKEN BioResource Center, Tsukuba, Japan, according to a previously described method. eNOS-knockout mice were kindly provided by Dr. Masato Tsutsui[41],[42]. The mice were group-housed under controlled illumination (12:12 h light-dark cycle) and temperature (23 ± 2 °C) conditions and given free access to normal chow and water, unless otherwise specified. The HFD-fed obese mice were prepared by feeding C57BL/6 mice a HFD for at least 8 weeks from 6 weeks of age. […] Male mice were used for all the experiments in this study. The animal care and experimental procedures used in the study were approved by The University of Tokyo Animal Care Committee (Approval number: 27-3), and the study was carried out in accordance with the Animal Experimentation Guidelines of Daiichi Sankyo Co., Ltd (Approved number: 20000411).
(§2) Mice that had been denied access to food overnight received the indicated oral dose of DS20060511 or vehicle 15 min prior to the glucose load (1.5 g kg^−1, except for eNOS-knockout mice, which received 3.0 g kg^−1). Then, after the oral glucose load, the blood glucose levels were measured using Glutest Every in samples obtained from the tail vein at the indicated timepoints. Plasma insulin concentrations were also measured with an ELISA kit (Morinaga Institute of Biological Science, Yokohama, Japan) in blood samples collected from the tail vein at the indicated timepoints.

AMPK = AMPK (Thr172) phosphorylation in isolated muscles with or without electrical stimulation; parameters: species or system mouse; details: isolated skeletal muscle; 10 μM DS20060511; Fig. 6b
HFD-fed mice = experiment: Oral GTT in normal-chow and high-fat diet (HFD)-fed mice; format: in vivo, mouse; details: for Blood glucose / Plasma insulin: Glucose tolerance test, HFD, 30 mg/kg, individual animals
Method: Fig. 8 Acute and chronic DS20060511 treatment improves glucose intolerance in HFD-fed and db/db mice. a Blood glucose and plasma insulin levels during an oral GTT in normal-chow (NC)- and high-fat diet (HFD)-fed mice (n = 5). Vehicle or DS20060511 (30 mg kg^−1) was given orally 15 min before the oral glucose administration (1.5 g kg^−1). Values shown are means ± SEM. *P < 0.05, **P < 0.01, ***P < 0.001 vs. the HFD vehicle by the t-test. b Effects of 10 μM DS20060511 and 100 nM insulin on 2-DG uptake in muscles isolated from NC-fed (n = 6) and HFD-fed (n = 5) mice. Values shown are means ± SEM. **P < 0.01 by one-way ANOVA followed by Tukey’s test. c, d Changes in the blood glucose levels and AUC on day 1 and day 28 during refeeding (n = 6) in db/db mice treated chronically with DS20060511 (10 mg kg^−1 day^−1). Values shown are means ± SEM. *P < 0.05, **P < 0.01, ***P < 0.001 vs. vehicle by the t-test. e Change of the HbA1c levels in the db/db (n = 6) mice at 4 weeks. Values shown are means ± SEM. *P < 0.05 vs. vehicle by the t-test.
as §1, §2

C57BL/6 mice = experiment: Indirect calorimetry under the oral glucose tolerance test; format: in vivo, mouse; details: oral GTT; 30 mg/kg po; 1 h after glucose load
Excerpt: In the revised manuscript, we have added references
154–156. We think that the reference, PMID: 23349504, is not suitable for this context, because this […]
What is the faith of the glucose in response to DS20060511? Is it oxidized or stored as glycogen? Does it produce excessive oxidative stress? Please include such important measures.
Response: Thank you for your question. We agree that such information is important. In the revised manuscript, we have added data on the glycogen contents of the skeletal muscle, heart, and liver after 28 days of DS20060511 treatment in db/db mice, in Supplementary Fig. 5c and lines 241–243, as […]
liver, or in the glycogen contents of the muscle, heart, and liver (Supplementary Fig. 5b, c).” The […]
oxidized, and not stored as glycogen. We, however, regret not assessing the level of oxidative stress in the skeletal muscles of the db/db mice. To determine whether DS20060511 treatment might produce excessive oxidative stress, the data of indirect calorimetry under GTT in B6 mice may be […]
produce excessive oxidative stress, at least at the whole-body level in the normal state.
Indirect calorimetry under the oral glucose tolerance test. C57BL/6 mice (n = 6) that had been denied access to food overnight received oral administration of 30 […]
glucose load (1.5 g kg-1). Indirect calorimetry was performed for 1 h after the glucose load. […]

COc1ccc2c(C)c(C(=O)O)ccc2c1C1C2=C(CC(C)(C)CC2=O)OC2=C1C(=O)CC(C)(C)C2 [DS20060511]
Blood glucose ([1]; GLUT4KO mice, 0 min): 151 mg/dL and 106 mg/dL and 203 mg/dL and 105 mg/dL and 130 mg/dL
Plasma insulin ([1]; GLUT4KO mice, 0 min): 0.11 ng/mL and 0.07 ng/mL and 0.16 ng/mL and 0.12 ng/mL and 0.18 ng/mL
Blood glucose ([1]; GLUT4KO mice, 15 min): 361 mg/dL and 352 mg/dL and 278 mg/dL and 400 mg/dL and 444 mg/dL
Plasma insulin ([1]; GLUT4KO mice, 15 min): 0.43 ng/mL and 0.42 ng/mL and 0.55 ng/mL and 0.33 ng/mL and 0.70 ng/mL and 0.59 ng/mL
Blood glucose ([1]; GLUT4KO mice, 30 min): 422 mg/dL and 387 mg/dL and 377 mg/dL and 384 mg/dL and 492 mg/dL and 513 mg/dL
Plasma insulin ([1]; GLUT4KO mice, 30 min): 0.34 ng/mL and 0.39 ng/mL and 0.25 ng/mL and 0.30 ng/mL and 0.28 ng/mL
Blood glucose ([1]; GLUT4KO mice, 60 min): 272 mg/dL and 266 mg/dL and 232 mg/dL and 390 mg/dL and 329 mg/dL and 389 mg/dL
Blood glucose ([1]; GLUT4KO mice, 90 min): 175 mg/dL and 168 mg/dL and 194 mg/dL and 265 mg/dL and 245 mg/dL and 275 mg/dL
Blood glucose ([1]; GLUT4KO mice, 120 min): 115 mg/dL and 112 mg/dL and 165 mg/dL and 193 mg/dL and 153 mg/dL and 190 mg/dL
Blood glucose ([1]; GLUT4KO mice, -15 min): 93 mg/dL and 75 mg/dL and 110 mg/dL and 49 mg/dL and 95 mg/dL and 89 mg/dL
Plasma insulin ([1]; GLUT4KO mice, -15 min): 0.06 ng/mL and 0.10 ng/mL and 0.11 ng/mL and 0.18 ng/mL and 0.13 ng/mL and 0.14 ng/mL
blood glucose and plasma insulin levels during oral GTT (in words) ([1]; GLUT4KO mice): completely abolished
Blood glucose ([1]; Wildtype mice, 0 min): 69 mg/dL and 44 mg/dL and 58 mg/dL and 62 mg/dL and 46 mg/dL
Plasma insulin ([1]; Wildtype mice, 0 min): 0.10 ng/mL and 0.02 ng/mL and 0.13 ng/mL and 0.14 ng/mL
Blood glucose ([1]; Wildtype mice, 15 min): 133 mg/dL and 103 mg/dL and 142 mg/dL and 181 mg/dL and 104 mg/dL
Plasma insulin ([1]; Wildtype mice, 15 min): 0.16 ng/mL and 0.14 ng/mL and 0.17 ng/mL and 0.18 ng/mL and 0.11 ng/mL
Blood glucose ([1]; Wildtype mice, 30 min): 124 mg/dL and 111 mg/dL and 100 mg/dL and 107 mg/dL
Plasma insulin ([1]; Wildtype mice, 30 min): 0.26 ng/mL and 0.10 ng/mL and 0.15 ng/mL
Blood glucose ([1]; Wildtype mice, 60 min): 92 mg/dL and 64 mg/dL and 99 mg/dL and 91 mg/dL and 76 mg/dL
Blood glucose ([1]; Wildtype mice, 90 min): 71 mg/dL and 61 mg/dL and 87 mg/dL and 88 mg/dL and 68 mg/dL
Blood glucose ([1]; Wildtype mice, 120 min): 74 mg/dL and 72 mg/dL and 70 mg/dL and 78 mg/dL and 82 mg/dL
Blood glucose ([1]; Wildtype mice, -15 min): 66 mg/dL and 39 mg/dL and 48 mg/dL and 81 mg/dL and 64 mg/dL
Plasma insulin ([1]; Wildtype mice, -15 min): 0.14 ng/mL and 0.18 ng/mL and 0.11 ng/mL
blood glucose and plasma insulin levels during oral GTT (in words) ([1]; wild-type (WT) mice): significant decrease of the blood glucose and plasma insulin levels
AMPK phosphorylation level (AMPK): no such change was observed
Blood glucose (HFD-fed mice; 0 min): 194 mg/dL and 178 mg/dL and 193 mg/dL and 108 mg/dL and 185 mg/dL
Plasma insulin (HFD-fed mice; 0 min): 0.79 ng/mL and 1.09 ng/mL and 0.57 ng/mL and 0.32 ng/mL and 0.69 ng/mL
Blood glucose (HFD-fed mice; 15 min): 331 mg/dL and 278 mg/dL and 279 mg/dL and 180 mg/dL and 270 mg/dL
Plasma insulin (HFD-fed mice; 15 min): 3.22 ng/mL and 2.72 ng/mL and 2.47 ng/mL and 1.43 ng/mL and 1.91 ng/mL
Blood glucose (HFD-fed mice; 30 min): 200 mg/dL and 213 mg/dL and 232 mg/dL and 161 mg/dL
Plasma insulin (HFD-fed mice; 30 min): 1.03 ng/mL and 1.28 ng/mL and 0.97 ng/mL and 0.53 ng/mL and 0.78 ng/mL
Blood glucose (HFD-fed mice; 60 min): 209 mg/dL and 214 mg/dL and 235 mg/dL and 141 mg/dL and 229 mg/dL
Blood glucose (HFD-fed mice; 90 min): 199 mg/dL and 201 mg/dL and 204 mg/dL and 164 mg/dL and 209 mg/dL
Blood glucose (HFD-fed mice; 120 min): 188 mg/dL and 154 mg/dL and 227 mg/dL and 155 mg/dL and 189 mg/dL
Blood glucose (HFD-fed mice; -15 min): 212 mg/dL and 167 mg/dL and 176 mg/dL and 120 mg/dL and 197 mg/dL
Plasma insulin (HFD-fed mice; -15 min): 1.31 ng/mL and 2.09 ng/mL and 1.16 ng/mL and 0.67 ng/mL
blood glucose levels during oral GTT (in words) (HFD-fed mice; HFD-fed mice, 30 mg kg−1 po): significantly decreased the blood glucose levels
plasma insulin levels during oral GTT (in words) (HFD-fed mice; HFD-fed mice, 30 mg kg−1 po): rather decreased
VO2 (C57BL/6 mice): no change in the VO2
